Measurements published in patent US10150766B2, “P2X7 modulators” (Jansssen Pharmaceutica NV, priority 2014, dated 2018).
Like-named read-outs stand apart in the source and are kept apart here.

Key:
P2X7 [1] = biological target: T1, P2X7 (Homo sapiens (Human), UniProt Q99572); assay: Radioligand binding ([3H]A-804598) to membranes of human P2X7-1321N1 cells; settings: human P2X7-1321N1 membranes, tracer tritiated A-804598, 1 hour at 4° C.
Description: P2X7 Antagonism in Recombinant Human P2X7 Cells or Recombinant Rat P2X7 Cells:
human or rat P2X7-1321N1 cells were collected and frozen @ −80° C. On the day of the experiment, cell membrane preparations were made according to standard published methods. […] The compound can be prepared as described in the literature. […] The assay was terminated by filtration (GF/B filters pre-soaked with 0.3% PEI) and washed with washing buffer (Tris-HCl 50 mM). The IC50 generated in the binding assay was corrected for tracer concentration and affinity of the tracer to derive at the affinity (Ki) of the test compounds. The data are presented in Table 2 under the headings: P2X7 human Ki (μM) and P2X7 rat Ki (μM). Data are analyzed and graphed on Graphpad Prism 5. For analysis, each concentration point is averaged from triplicate values and the averaged values are plotted on Graphpad Prism.

rat P2X7 = rat P2X7 (Rattus norvegicus (Rat), UniProt Q64663); assay: P2X7 antagonism in recombinant rat P2X7 cells (column headed P2X7 Rat IC50); format: binding
Chain of rat P2X7 (Q64663 whole entry): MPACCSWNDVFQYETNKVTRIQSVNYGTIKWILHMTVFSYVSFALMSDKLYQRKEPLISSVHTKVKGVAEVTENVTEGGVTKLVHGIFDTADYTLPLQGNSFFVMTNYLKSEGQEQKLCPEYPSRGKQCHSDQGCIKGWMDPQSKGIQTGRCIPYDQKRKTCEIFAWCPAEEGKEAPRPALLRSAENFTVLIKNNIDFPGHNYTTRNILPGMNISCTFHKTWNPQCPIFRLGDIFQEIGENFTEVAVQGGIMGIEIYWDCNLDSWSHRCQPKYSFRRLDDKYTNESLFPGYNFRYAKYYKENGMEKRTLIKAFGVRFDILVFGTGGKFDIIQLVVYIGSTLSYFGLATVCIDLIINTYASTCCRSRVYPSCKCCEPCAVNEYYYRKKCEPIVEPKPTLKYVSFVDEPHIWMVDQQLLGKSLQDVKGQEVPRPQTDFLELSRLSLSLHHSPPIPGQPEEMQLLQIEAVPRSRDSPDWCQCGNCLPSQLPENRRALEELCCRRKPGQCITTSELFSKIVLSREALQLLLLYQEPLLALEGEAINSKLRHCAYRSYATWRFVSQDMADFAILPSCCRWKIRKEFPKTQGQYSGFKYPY
Description: The in vitro affinity of the compounds of the invention for the rat and human P2X7 receptor was determined using a human peripheral blood mononuclear cells (PBMCs), a human whole blood assay, a Ca^2+ flux and radioligand binding assay in recombinant human P2X7 cells and recombinant rat P2X7 cells. […] The data represented in Tables 2 may represent a value from a single determination or when the experiment was run more than once, the data represents the average from between 2-12 runs.
P2X7 Antagonism in Recombinant Human P2X7 Cells or Recombinant Rat P2X7 Cells: […]

P2X7 [2] = biological target: T1, P2X7; assay: P2X7 antagonism in human whole blood, IL-1β release (LPS + Bz-ATP, ELISA); format: cell-based; settings: LPS 30 ng/ml + Bz-ATP 1 mM
Description: (§1) P2X7 Antagonism in Human Peripheral Blood Mononuclear Cells (PBMCs) and Human Whole Blood.
(§2) Human blood was collected using a blood donor program. PBMCs were isolated from blood using a Ficoll density gradient technique. Briefly, blood was laid on Ficoll solution and centrifuged at ROOM TEMPERATURE for 20 minutes at 2000 rpm. The buffy layer (between red blood cells and plasma) was carefully collected by aspiration, washed with PBS and centrifuged again at 1500 rpm for 15 minutes. The resulting cell pellet was washed and plated on 96 well-plates for experiments. For the Human Whole Blood experiments, 150 μl of human blood was plated on 96 well-plates. Lipopolysaccharide (LPS) (30 ng/ml) was added to each well and incubated for 1 hour. Test compounds were then added and incubated for 30 minutes. The P2X7 agonist, 2′(3′)-O-(4-benzoylbenzoyl) adenosine 5′-triphosphate (Bz-ATP) was then added at a final concentration of 0.5 mM (PBMC) or 1 mM (blood). Cells were incubated for an additional 1.5 hours. At that point, supernatant was collected and stored for IL-1β assay using manufacturer's protocol for enzyme-linked immunosorbant assay (ELISA). Data was expressed as percent control, where control is defined as the difference in IL-1β release in LPS+Bz-ATP samples and LPS only samples. Data was plotted as response (% control) versus concentration to generate IC50 values. […] Data are analyzed and graphed on Graphpad Prism 5. For analysis, each concentration point is averaged from triplicate values and the averaged values are plotted on Graphpad Prism. The IC50 for each compound is then uploaded into 3DX.

P2X7 [3] = biological target: T1, P2X7; assay: P2X7 antagonism in human peripheral blood mononuclear cells (PBMCs), IL-1β release (LPS + Bz-ATP, ELISA); format: cell-based; settings: P2X7, 10 μM test compound, LPS 30 ng/ml + Bz-ATP 0.5 mM, read-out: PBMC @10 μM (% control)
Description: as §1, §2

[4] = read-out: Human Whole Blood IC50

T1 sequence (Q99572 whole entry): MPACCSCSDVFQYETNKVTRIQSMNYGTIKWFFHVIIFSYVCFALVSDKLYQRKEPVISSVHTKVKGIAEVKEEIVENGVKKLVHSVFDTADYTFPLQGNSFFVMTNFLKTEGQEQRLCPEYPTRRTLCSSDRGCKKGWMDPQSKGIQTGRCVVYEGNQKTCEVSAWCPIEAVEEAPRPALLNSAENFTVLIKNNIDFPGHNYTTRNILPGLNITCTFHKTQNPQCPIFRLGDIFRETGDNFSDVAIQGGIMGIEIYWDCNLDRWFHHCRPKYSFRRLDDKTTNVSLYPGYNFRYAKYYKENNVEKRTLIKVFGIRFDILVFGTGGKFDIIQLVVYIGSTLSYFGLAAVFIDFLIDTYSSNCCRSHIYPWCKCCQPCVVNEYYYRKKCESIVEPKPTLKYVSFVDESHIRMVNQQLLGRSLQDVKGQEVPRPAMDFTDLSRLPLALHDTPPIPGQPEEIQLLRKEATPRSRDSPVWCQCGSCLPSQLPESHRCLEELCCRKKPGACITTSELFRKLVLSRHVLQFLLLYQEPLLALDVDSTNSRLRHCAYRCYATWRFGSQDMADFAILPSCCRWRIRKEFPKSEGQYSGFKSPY

SMILES | Ki (P2X7 [1]) [nM] | IC50 (rat P2X7) [nM] | IC50 (P2X7 [2]; Human Whole Blood IC50 (μM)) [µM] | remaining activity at 10 µM (P2X7 [3]) [%] | IC50 (P2X7 [2]; [4]) [µM]
Cc1nc(-c2ccccn2)c2c(n1)[C@H]1CCC[C@@H](C2)N1C(=O)c1cccc(Cl)c1Cl [Example 65, (2,3-dichlorophenyl)((6S,10R)-2-methyl-4-(pyridin-2-yl)-5,6,7,8,9,10-hexahydro-6,10-epiminocycloocta[d]pyrimidin-11-yl)methanone] | 49 | 184 | 0.042 | 0.1 | –
Cc1nc(-c2ccn[nH]2)c2c(n1)[C@H]1CCC[C@@H](C2)N1C(=O)c1ccnc(C(F)(F)F)c1Cl [Example 24, (3-chloro-2-(trifluoromethyl)pyridin-4-yl)((6S,10R)-2-methyl-4-(1H-pyrazol-5-yl)-5,6,7,8,9,10-hexahydro-6,10-epiminocycloocta[d]pyrimidin-11-yl)methanone] | 126 | 19.2 | 0.038 | 2.4 | –
Cc1nc(-c2ccc(F)cc2)c2c(n1)[C@H]1CCC[C@@H](C2)N1C(=O)c1cccc(Cl)c1Cl [Example 55, (2,3-dichlorophenyl)((6S,10R)-4-(4-fluorophenyl)-2-methyl-5,6,7,8,9,10-hexahydro-6,10-epiminocycloocta[d]pyrimidin-11-yl)methanone] | 105 | 217 | 0.037 | -1.6 | –
Cc1nc(-c2ccn[nH]2)c2c(n1)[C@H]1CCC[C@@H](C2)N1C(=O)c1ccc(F)c(Cl)c1Cl [Example 25, (2,3-dichloro-4-fluorophenyl)((6S,10R)-2-methyl-4-(1H-pyrazol-5-yl)-5,6,7,8,9,10-hexahydro-6,10-epiminocycloocta[d]pyrimidin-11-yl)methanone] | 20 | 18.7 | 0.025 | -10.2 | –
Cc1nc(-c2cnccn2)c2c(n1)[C@H]1CCC[C@@H](C2)N1C(=O)c1cccc(C(F)(F)F)c1Cl [Example 46, (2-chloro-3-(trifluoromethyl)phenyl)((6S,10R)-2-methyl-4-(pyrazin-2-yl)-5,6,7,8,9,10-hexahydro-6,10-epiminocycloocta[d]pyrimidin-11-yl)methanone] | 31.6 | 14.1 | 0.088 | -4.2 | –
Cc1nc(-c2cnccn2)c2c(n1)[C@H]1CCC[C@@H](C2)N1C(=O)c1cccc(C(F)(F)F)c1C [Example 50, (2-methyl-3-(trifluoromethyl)phenyl)((6S,10R)-2-methyl-4-(pyrazin-2-yl)-5,6,7,8,9,10-hexahydro-6,10-epiminocycloocta[d]pyrimidin-11-yl)methanone] | 93.3 | 67.8 | – | -2.2 | 0.158
Cc1nc(-c2ccn[nH]2)c2c(n1)[C@H]1CCC[C@@H](C2)N1C(=O)c1cccc(C(F)(F)F)c1C [Example 21, (2-methyl-3-(trifluoromethyl)phenyl)((6S,10R)-2-methyl-4-(1H-pyrazol-5-yl)-5,6,7,8,9,10-hexahydro-6,10-epiminocycloocta[d]pyrimidin-11-yl)methanone] | 31.6 | 33.2 | 0.026 | -26.4 | –
Cc1nc(-c2ccn[nH]2)c2c(n1)[C@H]1CCC[C@@H](C2)N1C(=O)c1ccc(F)cc1Cl [Example 22, (2-chloro-4-fluorophenyl)((6S,10R)-2-methyl-4-(1H-pyrazol-5-yl)-5,6,7,8,9,10-hexahydro-6,10-epiminocycloocta[d]pyrimidin-11-yl)methanone] | 316 | > 10000 | – | 26.8 | 0.286
Cc1nc(-c2ccc(F)cc2)c2c(n1)[C@H]1CCC[C@@H](C2)N1C(=O)c1cccc(C(F)(F)F)c1C [Example 53, ((6S,10R)-4-(4-fluorophenyl)-2-methyl-5,6,7,8,9,10-hexahydro-6,10-epiminocycloocta[d]pyrimidin-11-yl)(2-methyl-3-(trifluoromethyl)phenyl)methanone] | 31.6 | 191 | – | 0 | 0.131
Cc1nc(-c2ccnn2C)c2c(n1)[C@H]1CCC[C@@H](C2)N1C(=O)c1ccc(Cl)c(F)c1Cl [Example 58, (2,4-dichloro-3-fluorophenyl)((6S,10R)-2-methyl-4-(1-methyl-1H-pyrazol-5-yl)-5,6,7,8,9,10-hexahydro-6,10-epiminocycloocta[d]pyrimidin-11-yl)methanone] | 93.3 | 805 | – | -3.3 | 0.13
Cc1nc(-c2ncccn2)c2c(n1)[C@H]1CCC[C@@H](C2)N1C(=O)c1cccc(Cl)c1Cl [Example 45, (2,3-dichlorophenyl)((6S,10R)-2-methyl-4-(pyrimidin-2-yl)-5,6,7,8,9,10-hexahydro-6,10-epiminocycloocta[d]pyrimidin-11-yl)methanone] | 25.1 | 128 | 0.064 | -14.2 | –
Cc1nc(-c2ccn[nH]2)c2c(n1)[C@H]1CCC[C@@H](C2)N1C(=O)c1cccc(Cl)c1Cl [Example 29, (2,3-dichlorophenyl)((6S,10R)-2-methyl-4-(1H-pyrazol-5-yl)-5,6,7,8,9,10-hexahydro-6,10-epiminocycloocta[d]pyrimidin-11-yl)methanone] | 20 | 206 | 0.008 | -22.9 | –
Cc1nc(-c2ccnn2C)c2c(n1)[C@H]1CCC[C@@H](C2)N1C(=O)c1cccc(Cl)c1Cl [Example 59, (2,3-dichlorophenyl)((6S,10R)-2-methyl-4-(1-methyl-1H-pyrazol-5-yl)-5,6,7,8,9,10-hexahydro-6,10-epiminocycloocta[d]pyrimidin-11-yl)methanone] | 135 | 1090 | – | -1.8 | 0.372
Cc1nc(-c2ccn[nH]2)c2c(n1)C1CCCC(C2)N1C(=O)c1cccc(Cl)c1Cl (centres unmarked) [Example 1, (2,3-dichlorophenyl)(2-methyl-4-(1H-pyrazol-5-yl)-5,6,7,8,9,10-hexahydro-6,10-epiminocycloocta[d]pyrimidin-11-yl)methanone] | 31.6 | 101 | 0.027 | 3.3 | –
Cc1nc(-c2ccn[nH]2)c2c(n1)[C@H]1CCC[C@@H](C2)N1C(=O)c1ccc(Cl)cc1F [Example 28, (4-chloro-2-fluorophenyl)((6S,10R)-2-methyl-4-(1H-pyrazol-5-yl)-5,6,7,8,9,10-hexahydro-6,10-epiminocycloocta[d]pyrimidin-11-yl)methanone] | 126 | 7940 | – | -25.1 | 0.423
Cc1nc(-c2ncccn2)c2c(n1)[C@H]1CCC[C@@H](C2)N1C(=O)c1ccc(Cl)c(F)c1Cl [Example 44, (2,4-dichloro-3-fluorophenyl)((6S,10R)-2-methyl-4-(pyrimidin-2-yl)-5,6,7,8,9,10-hexahydro-6,10-epiminocycloocta[d]pyrimidin-11-yl)methanone] | 50.1 | 251 | – | -11.6 | 0.156
Cc1nc(-c2ccnn2C)c2c(n1)[C@H]1CCC[C@@H](C2)N1C(=O)c1cccc(C(F)(F)F)c1Cl [Example 56, (2-chloro-3-(trifluoromethyl)phenyl)((6S,10R)-2-methyl-4-(1-methyl-1H-pyrazol-5-yl)-5,6,7,8,9,10-hexahydro-6,10-epiminocycloocta[d]pyrimidin-11-yl)methanone] | 100 | 11.6 | 0.048 | -2.9 | –
